Where “and” joins values, the source holds several entries; their conditions need not be identical. Identical values can stand only once. Inconclusive results and toxic doses are left out. Rule as the data show it: active = T/C of 150% or more; inactive = T/C below 125%.
Test system: L1210 leukemia ip in BDF1 mice, survival T/C
Experiment: NCI In Vivo Anticancer Drug Screen. Data for tumor model L1210 Leukemia (intraperitoneal) in B6D2F1 (BDF1) mice
Details: endpoint: mean survival time, higher = longer survival
Summary of the method: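 Value reflects the ratio of survival in compound-treated mice to survival in vehicle-treated controls, with both groups carrying the same transplanted tumor.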

[1] = dose: 100.0 mg/kg/injection, schedule: Q01DX001 (ip), vehicle: saline
[2] = dose: 200.0 mg/kg/injection, schedule: Q01DX001 (ip), vehicle: saline
[3] = dose: 100.0 mg/kg/injection, schedule: Q01DX001 (ip), vehicle: saline with Tween-80
[4] = dose: 200.0 mg/kg/injection, schedule: Q01DX001 (ip), vehicle: saline with Tween-80
[5] = dose: 50.0 mg/kg/injection, schedule: Q01DX001 (ip), vehicle: carboxymethylcellulose (CMC)
[6] = dose: 100.0 mg/kg/injection, schedule: Q01DX001 (ip), vehicle: carboxymethylcellulose (CMC)
[7] = dose: 200.0 mg/kg/injection, schedule: Q01DX001 (ip), vehicle: carboxymethylcellulose (CMC)
[8] = dose: 400.0 mg/kg/injection, schedule: Q01DX001 (ip), vehicle: carboxymethylcellulose (CMC)
[9] = dose: 50.0 mg/kg/injection, schedule: Q01DX009 (ip), vehicle: Klucel (hydroxypropylcellulose) (HPC)
[10] = dose: 100.0 mg/kg/injection, schedule: Q01DX009 (ip), vehicle: Klucel (hydroxypropylcellulose) (HPC)
[11] = dose: 100.0 mg/kg/injection, schedule: Q04DX003 (ip), vehicle: Klucel (hydroxypropylcellulose) (HPC)
[12] = dose: 200.0 mg/kg/injection, schedule: Q01DX009 (ip), vehicle: Klucel (hydroxypropylcellulose) (HPC)
[13] = dose: 200.0 mg/kg/injection, schedule: Q04DX003 (ip), vehicle: Klucel (hydroxypropylcellulose) (HPC)
[14] = dose: 400.0 mg/kg/injection, schedule: Q01DX009 (ip), vehicle: Klucel (hydroxypropylcellulose) (HPC)
[15] = dose: 400.0 mg/kg/injection, schedule: Q04DX003 (ip), vehicle: Klucel (hydroxypropylcellulose) (HPC)

Measured: T/C

Cc1cc(N)c2cc(NC(=O)CCCCCCCCC(=O)Nc3ccc4nc(C)cc(N)c4c3)ccc2n1
inactive: dose: 8.9 mg/kg/injection, schedule: Q01DX Z (ip), vehicle: saline 103 % of control and 114 % of control | dose: 12.0 mg/kg/injection, schedule: Q01DX Z (ip), vehicle: methylcellulose (MC) 96 % of control | dose: 12.0 mg/kg/injection, schedule: Q01DX Z (ip), vehicle: saline 121 % of control | dose: 13.3 mg/kg/injection, schedule: Q01DX Z (ip), vehicle: carboxymethylcellulose (CMC) 114 % of control | dose: 13.3 mg/kg/injection, schedule: Q01DX Z (ip), vehicle: saline 111 % of control | dose: 18.0 mg/kg/injection, schedule: Q01DX Z (ip), vehicle: methylcellulose (MC) 100 % of control | dose: 18.0 mg/kg/injection, schedule: Q01DX Z (ip), vehicle: saline 119 % of control | dose: 20.0 mg/kg/injection, schedule: Q01DX Z (ip), vehicle: carboxymethylcellulose (CMC) 112 % of control | dose: 20.0 mg/kg/injection, schedule: Q01DX Z (ip), vehicle: saline 114 % of control and 122 % of control | dose: 27.0 mg/kg/injection, schedule: Q01DX Z (ip), vehicle: methylcellulose (MC) 96 % of control | dose: 27.0 mg/kg/injection, schedule: Q01DX Z (ip), vehicle: saline 123 % of control | dose: 30.0 mg/kg/injection, schedule: Q01DX Z (ip), vehicle: carboxymethylcellulose (CMC) 108 % of control | dose: 30.0 mg/kg/injection, schedule: Q01DX Z (ip), vehicle: saline 115 % of control | dose: 40.0 mg/kg/injection, schedule: Q01DX Z (ip), vehicle: methylcellulose (MC) 96 % of control | dose: 40.0 mg/kg/injection, schedule: Q01DX Z (ip), vehicle: saline 121 % of control | dose: 50.0 mg/kg/injection, schedule: Q01DX001 (ip), vehicle: saline 106 % of control | dose: 90.0 mg/kg/injection, schedule: Q01DX Z (ip), vehicle: methylcellulose (MC) 107 % of control | dose: 90.0 mg/kg/injection, schedule: Q01DX Z (ip), vehicle: saline 113 % of control and 121 % of control and 86 % of control | [1] 120 % of control | dose: 100.0 mg/kg/injection, schedule: Q04DX003 (ip), vehicle: carboxymethylcellulose (CMC) 121 % of control | dose: 135.0 mg/kg/injection, schedule: Q01DX Z (ip), vehicle: methylcellulose (MC) 93 % of control | [2] 112 % of control | dose: 200.0 mg/kg/injection, schedule: Q04DX003 (ip), vehicle: carboxymethylcellulose (CMC) 117 % of control | dose: 400.0 mg/kg/injection, schedule: Q04DX003 (ip), vehicle: carboxymethylcellulose (CMC) 116 % of control

C(=N\N=C\c1ccco1)/c1ccco1
inactive: [3] 98 % of control and 103 % of control | [4] 98 % of control

Cn1ncc2cncnc21
inactive: [1] 103 % of control | [2] 103 % of control | dose: 400.0 mg/kg/injection, schedule: Q01DX001 (ip), vehicle: saline 103 % of control

ClC1=CC2CCC(C2)C1Cl (stereo not given)
inactive: dose: 100.0 mg/kg/injection, schedule: Q01DX009 (ip), vehicle: saline 106 % of control | dose: 100.0 mg/kg/injection, schedule: Q04DX003 (ip), vehicle: acetone 88 % of control | dose: 200.0 mg/kg/injection, schedule: Q01DX009 (ip), vehicle: saline 102 % of control | dose: 200.0 mg/kg/injection, schedule: Q04DX003 (ip), vehicle: acetone 88 % of control | dose: 400.0 mg/kg/injection, schedule: Q01DX009 (ip), vehicle: saline 103 % of control | dose: 400.0 mg/kg/injection, schedule: Q04DX003 (ip), vehicle: acetone 90 % of control

Cc1csc(=S)n1-c1ccc(Cl)cc1
inactive: [3] 107 % of control | [4] 100 % of control | dose: 400.0 mg/kg/injection, schedule: Q01DX001 (ip), vehicle: saline with Tween-80 98 % of control

CCc1ccccc1N/N=C(\Cl)C(C)=O
inactive: dose: 6.25 mg/kg/injection, schedule: Q01DX009 (ip), vehicle: saline 106 % of control | dose: 12.5 mg/kg/injection, schedule: Q01DX009 (ip), vehicle: saline 106 % of control | dose: 25.0 mg/kg/injection, schedule: Q01DX009 (ip), vehicle: saline 95 % of control

CC[n+]1c(C)sc2cc(Cl)c(-c3ccccc3)cc21
inactive: dose: 100.0 mg/kg/injection, schedule: Q04DX003 (ip), vehicle: saline 98 % of control | dose: 200.0 mg/kg/injection, schedule: Q04DX003 (ip), vehicle: saline 101 % of control | dose: 400.0 mg/kg/injection, schedule: Q04DX003 (ip), vehicle: saline 95 % of control

NC(=O)O/N=C/c1ccccn1
inactive: dose: 100.0 mg/kg/injection, schedule: Q04DX003 (ip), vehicle: saline with Tween-80 105 % of control | dose: 200.0 mg/kg/injection, schedule: Q04DX003 (ip), vehicle: saline with Tween-80 103 % of control | dose: 400.0 mg/kg/injection, schedule: Q04DX003 (ip), vehicle: saline with Tween-80 106 % of control

COc1ccc(-c2cc(Cl)c([N+](=O)[O-])cc2[N+](=O)[O-])cc1
inactive: [5] 100 % of control | [6] 107 % of control | [7] 110 % of control | [8] 102 % of control

COc1ccc(C(=O)OCC(Br)CBr)cc1 (stereo not given)
inactive: dose: 222.0 mg/kg/injection, schedule: Q01DX Z (ip), vehicle: methylcellulose (MC) 102 % of control | dose: 333.0 mg/kg/injection, schedule: Q01DX Z (ip), vehicle: methylcellulose (MC) 108 % of control | dose: 500.0 mg/kg/injection, schedule: Q01DX Z (ip), vehicle: methylcellulose (MC) 103 % of control

CC/C=C1\CCOC1=O
inactive: dose: 100.0 mg/kg/injection, schedule: Q04DX002 (ip), vehicle: saline 102 % of control | dose: 200.0 mg/kg/injection, schedule: Q04DX002 (ip), vehicle: saline 102 % of control | dose: 400.0 mg/kg/injection, schedule: Q04DX002 (ip), vehicle: saline 115 % of control

O=C1c2cc(F)ccc2-c2cccc(F)c21
inactive: [5] 102 % of control | [6] 108 % of control | [7] 104 % of control | [8] 98 % of control

O=C1NC(c2ccc3ccccc3n2)Nc2ccccc21 (stereo not given)
inactive: [9] 92 % of control | [10] 93 % of control | dose: 150.0 mg/kg/injection, schedule: Q01DX009 (ip), vehicle: Klucel (hydroxypropylcellulose) (HPC) 90 % of control

Brc1cc(Br)c(-c2c(Br)cc(Br)cc2Br)c(Br)c1
inactive: [9] 111 % of control | [10] 93 % of control | [11] 108 % of control | [12] 101 % of control | [13] 105 % of control | [14] 98 % of control | [15] 95 % of control

Cc1cc(=O)n(Cc2ccccc2)c(O)c1C
inactive: [10] 95 % of control | [11] 94 % of control | [12] 91 % of control | [13] 94 % of control | [14] 93 % of control | [15] 98 % of control

CSc1nc(-c2cccs2)cc(C(F)(F)F)n1
inactive: dose: 100.0 mg/kg/injection, schedule: Q04DX003 (ip), vehicle: gum acacia 97 % of control | dose: 200.0 mg/kg/injection, schedule: Q04DX003 (ip), vehicle: gum acacia 100 % of control | dose: 400.0 mg/kg/injection, schedule: Q04DX003 (ip), vehicle: gum acacia 102 % of control

Reference: PubChem BioAssay AID248 (DTP/NCI, 2004)
